The source of these data is patent US9358276B2, “Methods of diagnosing and treating small intestinal bacterial overgrowth (SIBO) and SIBO-related conditions” (Cedars-Sinai Medical Center, priority 1999, dated 2016).

The structures appear in SMILES notation.

Assay [1] deals with release of 5-HT from the proximal gut. Description: 5-HT released by the proximal gut (ELISA of mid-gut fistula output). The note with it: 5-HT 0.05 mg/kg/h to distal gut; control 156 μg; n=1. Format: in vivo, dog. As for the experimental part:
To test the hypothesis that fat in the distal gut causes the release of 5-HT in the proximal gut, the amount of 5-HT collected from the output of the mid-gut fistula (proximal gut 5-HT) over a 90-minute period of buffer perfusion through both the duodenal and mid-gut fistulas (2 mL/min); buffer (control) or oleate (60 mM) was administered to the distal gut (n=1). The amount of 5-HT was determined using an ELISA kit specific for 5-HT (Sigma; Graham-Smith, D. G., The carcinoid syndrome, In: Topics in Gastroenterology, Truclove, S. C. and Lee, E. (eds.), Blackwells, London, p. 275 [1977]; Singh, S. M. et al., Concentrations of serotonin in plasma-a test for appendicitis?, Clin. Chem. 34:2572-2574 [1988]). The amount of 5-HT released by the proximal gut increased in response to fat in the distal gut from 100 μg in the control (buffer minus oleate) to 338 μg (buffer plus oleate to distal gut), showing that 5-HT is released in the proximal gut in response to fat in the distal gut. Thus, the release of 5-HT by the proximal gut can serve as a relayed signal for fat in the distal gut. The relayed release of 5-HT in the proximal gut in response to fat in the distal gut is consistent with Example 14(2), showing that slowing of intestinal transit by fat depends on an efferent 5-HT-mediated pathway to the proximal gut.
To test the hypothesis that 5-HT in the distal gut causes the release of 5-HT in the proximal gut, the amount of 5-HT collected from the output at the mid-gut fistula (Proximal gut 5-HT) over a 90-minute period of buffer perfusion through both the duodenal and mid-gut fistulas (2 mL/min each) was compared in the presence or absence of 5-HT (0.05 mg/kg/h) administered to the distal gut (n=1). 5-HT concentration was determined using an ELISA kit specific for 5-HT (Sigma). The amount of 5-HT released by the proximal gut increased from 156 μg in the control (minus distal 5-HT) to 450 μg (plus 5-HT to distal gut), implying that 5-HT is released by the proximal gut in response to 5-HT in the distal gut. Thus, the release of 5-HT by the proximal gut can serve as a relayed signal for distal gut 5-HT. This relayed release of 5-HT in the proximal gut explains the results of Example 14(6) showing that the slowing of intestinal transit by distal gut 5-HT was abolished by ondansetron in the proximal gut (efferent limb of response) as well as in the distal gut (afferent limb of response).
To test the hypothesis that the proximal gut releases 5-HT in response to lipid in the distal gut, we compared the amount of 5-HT in the output of the midgut fistula (i.e., proximal gut 5-HT) with buffered saline (control) or oleate in the distal gut. The amount of 5-HT collected over 90 min was measured using a 5-HT-specific ELISA test kit, as described herein above. Four dogs were tested.
The amount of 5-HT released from the proximal gut in response to intravenous PYY or buffered saline (Control) during buffer perfusion (2 mL/min over 90 minutes) through both the duodenal and mid-gut fistulas was measured to test the hypothesis that intravenous PYY (0.8 mg/kg/h) causes the release of 5-HT in the proximal gut. 5-HT was measured as in Example 14(9) above. The amount of 5-HT released by the proximal gut increased from 140.1 μg (Control) to 463.1 μg in response to intravenous PYY.
(In general: In an ELISA, binding on a coated surface is turned into a signal by an enzyme label.)

The test system of a further assay is intestinal transit. Kind of assay: Intestinal transit in multi-fistulated dogs, cumulative % recovery of 99mTc-DTPA. It counts as in vivo, dog. The note with it: for Effect of 5-HT delivered to distal gut on intestinal transit time: n = 2 dogs. The source says:
The experiments described below are based on a previously described chronic multi-fistulated dog model, employing surgically fistulated male or female mongrel dogs weighing about 25 kg each. (Lin, H. C. et al., Inhibition of gastric emptying by glucose depends on length of intestine exposed to nutrient, Am. J. Physiol. 256:G404-G411 [1989]). The small intestines of the dogs were each about 300 cm long from the pylorus to the ileal-cecal valve. The duodenal fistula was situated 15 cm from the pylorus; the mid-gut fistula was situated 160 cm from the pylorus. Occluding Foley catheters (balloon catheters that are inflated to produce a water-tight seal with the lumenal surface) were placed into the distal limb of a duodenal fistula and a mid-gut fistula, fat or other test agents were administered lumenally to the thus compartmentalized Aproximal≅ section of the gut, i.e., between the fistulas, or to the compartmentalized Adistal≅ section of the gut, i.e., beyond the mid-gut fistula. Perfusate was pumped into a test section through the catheter at a rate of 2 mL/minute. Test agents were administered along with buffer perfusate, but some test agents were administered intravenously, where specifically noted.
Intestinal transit measurements were made by tracking the movement of a liquid marker across the approximately 150 cm intestinal test segment by delivering about 20 μCi ^99mTc chelated to diethyltriamine pentaacetic acid (DTPA)(Cunningham, K. M. et al., Use of technicium-99m (V)thiocyanate to measure gastric emptying of fat, J. Nucl. Med. 32:878-881 [1991]) as a bolus into the test segment after 60 minutes of a 90-minute perfusion. The output from the mid-gut fistula was collected every 5 min thereafter for 30 minutes, which period is illustrated in FIGS. 9-23. Using a matched dose of ^99mTc to represent the original radioactivity (Johansson, C., Studies of gastrointestinal interactions, Scand. J. Gastroenterol. 9(Suppl 28):1-60 [1974]; Zierler, K., A simplified explanation of the theory of indicator dilution for measurement of fluid flow and volume and other distributive phenomena, Bull. John Hopkins 103:199-217 [1958]), the radioactivity delivered into the animal as well as the radioactivity of the recovered fistula output were all measured using a gamma well counter. After correcting all counts to time zero, intestinal transit was calculated as the cumulative percent recovery of the delivered ^99mTc-DTPA. This method has been well validated over the years and appreciated for its advantage of minimal inadvertent marker loss. […] There was a very high level of marker recovery, with 90% of the marker recovered by 30 minutes and 98% of the marker recovered by 45 minutes.

The test system of assay [2] is SIBO. Kind of assay: Antibiotic treatment of Crohn's disease subjects with SIBO. It counts as in vivo, human. The note with it: Crohn's subjects; pooled over the named antibiotics. Here is the method:
To correct for selection bias, a pilot study was conducted to determine the incidence of SIBO in subjects who had received a suspected diagnosis of Crohn's disease at Cedars-Sinai Medical Center=s IBD Center within the preceding three months.

The test system of assay [3] is SIBO. Description: Comparison of antibiotic regimes for eradicating SIBO, follow-up lactulose breath hydrogen test (LBHT). Format: in vivo, human. The note with it: for % Patients with SIBO Eradicated: follow-up LBHT. As for the experimental part:
Subjects were tested after an overnight fast. […] Each breath sample was then analyzed for hydrogen content with a gas chromatograph (Quintron Model DP, Quintron Instrument Co., Division of E.F. Brewer Co, Menomonee Falls, Wis. 53051), standardized using a QuinGas standard as instructed by the manufacturer. Hydrogen peaks were plotted before and after an antimicrobial treatment regimen for comparison. The normal range for the second hydrogen peak was 0 to 20 ppm. Subjects referred to the Cedars-Sinai GI Motility Program for a lactulose breath hydrogen test (LBHT) to assess SIBO were entered into a database. Those that tested positive for SIBO were given antibiotic treatment by their referring physician and in some cases, returned for a follow-up LBHT to assess eradication of SIBO. During the follow-up LBHT, subjects were asked which antibiotic they were given to treat their SIBO. The eradication rate of each antibiotic was evaluated. Of the 771 subjects in the database, 561 (73%) tested positive for SIBO. […] (See Table 1 below). […] None of the commonly used antibiotics was universally successful in eradicating overgrowth.

Another assay has as its system ileal brake. The note with it: rats, Brown et al. 1993, cited from earlier work.

`NCCc1c[nH]c2ccc(O)cc12` [5-HT, 5-hydroxytryptamine]: in assay [1], the “amount of 5-HT released by the proximal gut” value stood at 450 µg. The “Effect of 5-HT delivered to distal gut on intestinal transit time” value in the assay with intestinal transit (0.033 mg/kg/h × 90 min, 0 dose 68.5 ± 1.0) was 69.6 ± 4.2 min; in the assay with intestinal transit (0.05 mg/kg/h × 90 min) it was 33.5 ± 1.5 min; with intestinal transit (0.066 mg/kg/h × 90 min) it was 15.2 ± 0.5 min; in the assay with intestinal transit (0.1 mg/kg/h × 90 min), 16.1 ± 4.9 min; in the assay with intestinal transit (0.3 mg/kg/h × 90 min), 73.8 ± 0.6 min. Also, the marker recovery worked out at 35.2±2.3% in the assay with intestinal transit (0.1 mg/kg/h 5-HT into distal gut, Saline-Dist 76.1±1.3%); 20.1±4.5% with intestinal transit (0.1 mg/kg/h 5-HT into proximal gut, Saline-Prox 85.0±7.3%, four dogs); 37.0±1.8% in the assay on intestinal transit (5-HT 0.05 mg/kg/h in distal gut, Buffer Control 79.4±4.1%); 36.1±2.3% in the assay on intestinal transit (5-HT 0.05 mg/kg/h to distal gut, Buffer Control 83.3±3.3%, n=2); 35.2±2.2% in the assay on intestinal transit (5-HT 0.1 mg/kg/h to distal gut, buffer control 76.1±4.7%, four dogs); 73.8% with intestinal transit (5-HT in distal gut, 2 mg (0.033 mg/kg/h) over 90 min, buffer 81.2%, n=1). For the same compound, the marker recovery in the assay with intestinal transit (5-HT in distal gut, 3 mg (0.05 mg/kg/h), n=1) is on record as 53.1%; with intestinal transit (5-HT in distal gut, 4 mg (0.066 mg/kg/h), n=1), 11.6%; in the assay on intestinal transit (5-HT in proximal gut, 0.033 mg/kg/h), “not significantly different from the buffer control”; with intestinal transit (5-HT in proximal gut, 0.05 mg/kg/h) it was 33.2±14.0%; in the assay with intestinal transit (5-HT in proximal gut, 0.066 mg/kg/h, buffer 75.0±4.4%, four dogs), 16.9±+3.7%. In addition, the “proximal intestinal transit, cumulative % marker recovered” value with intestinal transit (5-HT 0.1 mg/kg/h distal gut, Saline (i.v.)) was 28.27 ± 5.03%.
For `O=C(O)c1cn(C2CC2)c2cc(N3CCNCC3)c(F)cc2c1=O` [Ciprofloxacin, ciprofloxacin], in the assay with SIBO [2], the “improvement in symptoms, breath test negative after antibiotic” value was 69±27%. In addition, the “% Patients with SIBO Eradicated” value with SIBO [3] was found to be 50%.
On to `Cc1ncc([N+](=O)[O-])n1CCO` [Flagyl, metronidazole], for which, in the assay with SIBO [2], the “improvement in symptoms, breath test negative after antibiotic” value is 69±27% and the “improvement in symptoms, subjects remaining positive on breath test after antibiotic” value amounted to 20±0%. The “success in eradicating SIBO, comparison of antibiotics” value in the assay with SIBO [3] (105 subjects with follow-up LBHT) is “relatively poor choice by itself”. Also, the “% Patients with SIBO Eradicated” value with SIBO [3] is recorded as 25%.
As for `CN1C2CCCC1CC(NC(=O)c1nn(C)c3ccccc13)C2` (centres unmarked) [granisetron], in the assay with ileal brake (subcutaneous administration), the “ileal brake induced by ileal infusion of lipid” value was “abolished the ileal brake” and the “intestinal transit of a baked bean meal” value is on record as “delayed”.
On to `C=CCN1CC[C@]23c4c5ccc(O)c4O[C@H]2C(=O)CC[C@@]3(O)[C@H]1C5` [naloxone], for which the marker recovery amounted to 41.0±5.2% with intestinal transit (60 mM oleate in proximal gut with 3 mg naloxone); 62.8±8.2% with intestinal transit (60 mM oleate in proximal gut with 6 mg naloxone); 60.6±6.1% with intestinal transit (60 mM oleate in proximal gut with 12 mg naloxone); 88.0±1.3% with intestinal transit (buffer in proximal gut with 6 mg naloxone, no fat, without naloxone 81.3±6.1%, n=3); 90.1±4.6% in the assay on intestinal transit (distal gut 5-HT + naloxone 6 mg in proximal gut); 29.4±5.4% in the assay on intestinal transit (ileal brake + 6 mg naloxone to distal gut). The marker recovery in the assay with intestinal transit (ileal brake + 6 mg naloxone to proximal gut) came to 76.2±5.2%. Besides, the ileal brake entry in the assay with ileal brake is recorded as “abolish the ileal brake”.
On to `NC[C@H](O)c1ccc(O)c(O)c1` [norepinephrine], for which the “Transit Across Proximal Gut (Cumulative % Marker Recovered)” value with intestinal transit (Buffer + NE i.v. 50 mg/30 ml/1.5 h, Buffer Control 68.5 ± 5.0, five dogs) is 16.3 ± 3.4^ab %. In the assay on intestinal transit (intravenous norepinephrine 0.12 μg/kg/h + normal saline, Buffer Control 76.9%, n=2), the marker recovery worked out at 13.3%.
As for `CC(C)NCC(O)COc1cccc2ccccc12` (centres unmarked) [propranolol], the entries for the “proximal intestinal transit, cumulative % marker recovered” value in the assay with intestinal transit (60 mM oleate distal gut + Propranolol (i.v.) 50 μg/kg/h) and in the assay on intestinal transit (5-HT distal gut + Propranolol (i.v.) 50 μg/kg/h) were 66.42 ± 8.26% and 63.85 ± 8.76%, respectively. The figures for the marker recovery in the assay on intestinal transit (distal gut 5-HT + intravenous propranolol 50 μg/kg/h), in the assay on intestinal transit (distal gut oleate + intravenous propranolol 50 μg/kg/h) and with intestinal transit (intravenous PYY + intravenous propranolol 50 μg/kg/h) were 77.7±7.6%, 72.1±4.7% and 66.3±3.1%, respectively.
